Where no end group is shown, it is not given here. The star is where a group is joined. Biotin = O=C1N[C@H]2[C@H](CS[C@H]2CCCCC(=O)*)N1
B1: EID2 WT peptide (aa 197-217) (peptide)
peptide: Biotin-SGSGQRNPHRVDLDILTFTIALTAS
notes: also called wild-type peptide; long EID2 peptide; source: synthetic peptide (Mimotopes); not shown: biotin-SGSG spacer, N-terminal, kept

How the values were obtained:
[1] = tested on: MAGEC2(129-339) protein; assay: PEPSCAN ELISA of EID2 mutant peptides; assay type: binding, human; conditions: His-S-MAGEC2(129-339) 200-400 nM, 450 nm; for binding affinity to MAGEC2 relative to wild-type peptide: biotinylated peptide 400 nM on streptavidin-coated plates, 4°C overnight, anti-His/peroxidase, TMB, mean of 3 independent measurements, background = His-hTRF2 control; for binding affinity to MAGEC2 compared with wild-type peptide (in words): biotinylated peptide 400 nM, 3 independent measurements
Description: A peptide library of the alanine mutant peptides (Table 1) of the aa 197-217 region of the human EID2 protein was obtained from Mimotopes (Australia). The library was linked to biotin via an additional peptide spacer of serine–glycine–serine–glycine. Each well on ELISA 96-well plates was coated with 100 µl of 5 µg/ml streptavidin (Sigma), incubated overnight at 37°C and then blocked with 3% bovine serum albumin (BSA) in PBS for 2 h at room temperature. The biotinylated peptides (400 nM, in PBS with 0.1% BSA) were applied into wells to saturate their surface and incubated at room temperature for 1 h. The plates were washed three times with 0.1% Tween 20 in PBS and then His-S-MAGEC2(129-339) protein was added (200–400 nM). Plates were incubated at 4°C overnight before washing (as above) to remove unbound protein. First anti-His antibody (Sigma; diluted 1/1000 in PBS with 1% BSA) was incubated for 2 h, washed three times and secondary peroxidase-conjugated rabbit-antiserum against mouse immunoglobulins (DAKO; diluted 1/1000 in PBS with 1% BSA) was added for 1 h (at 4°C). Peroxidase enzyme activity was measured with tetramethylbenzidine and the results were monitored using an automatic ELISA plate reader at a wavelength 450 nm.

[2] = tested on: necdin (aa 1-321); assay: Pull-down of biotin-tagged EID2 peptides on streptavidin-agarose beads; assay type: binding, human; conditions: in vitro translated necdin, 2 h at 4°C in PBS, SDS-PAGE, phosphorimaging
Description: Biotin-tagged EID2 peptides were preincubated overnight with streptavidin-agarose beads (Thermo Scientfic) at 4°C. The beads were washed 2 times with 0.1% Tween 20 in PBS buffer, then in vitro-expressed proteins in a total volume of 200 µl PBS buffer were added and incubated for 2 h at 4°C. The beads were washed 4 times with 0.1% Tween 20 in PBS buffer and the bound proteins were eluted in SDS sample buffer and boiled. Input, unbound, and bound fractions of the in vitro expressed proteins were separated by SDS-PAGE and analyzed by phosphorimaging (FLA-7000, Fujifilm). The bound fractions were analyzed by dot blotting to ensure equal EID2 peptide levels were used in pull down assays (data not shown).

[3] = molecular target: T1, His-S-MAGEC2(129-339) (human, UniProt Q9UBF1 129-339); assay: ELISA; PEPSCAN ELISA; biotinylated EID2 peptides (400 nM) on streptavidin-coated plates; His-S-MAGEC2(129-339) 200–400 nM, 4°C overnight; anti-His detection; conditions: both partners purified
T1 construct: source: E. coli C41, purified (His-TRAP column, FPLC)
T1 sequence (looked up): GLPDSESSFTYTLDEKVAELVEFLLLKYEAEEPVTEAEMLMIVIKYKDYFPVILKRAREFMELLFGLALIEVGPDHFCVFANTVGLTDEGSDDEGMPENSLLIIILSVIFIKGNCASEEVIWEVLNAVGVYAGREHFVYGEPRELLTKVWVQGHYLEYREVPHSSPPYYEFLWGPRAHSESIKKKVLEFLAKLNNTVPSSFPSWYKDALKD

Row | Molecule | binding affinity to MAGEC2 relative to wild-type peptide [1] | binding result [3] | further results
1 | ARNPHRVDLDILTFTIALTAS [peptide #1, EID2 alanine mutant peptide Q197A] | ~30 % of WT affinity | – | binding affinity to MAGEC2 compared with wild-type peptide (in words) [1]: significantly reduced; binding of necdin to peptide (pull-down, in words) [2]: comparable to the wild-type peptide
2 | QANPHRVDLDILTFTIALTAS [peptide #2, EID2 alanine mutant peptide R198A] | < 20 % of WT affinity | – | binding affinity to MAGEC2 compared with wild-type peptide (in words) [1]: significantly reduced; binding of necdin to peptide (pull-down, in words) [2]: comparable to the wild-type peptide
3 | QRNPHAVDLDILTFTIALTAS [peptide #6, EID2 alanine mutant peptide R202A] | < 20 % of WT affinity | – | –
4 | QRNPHRVALDILTFTIALTAS [peptide #8, EID2 alanine mutant peptide D204A] | – | – | binding affinity to MAGEC2 compared with wild-type peptide (in words) [1]: comparable to that of the wild-type peptide
5 | QRNPHRVDADILTFTIALTAS [peptide #9, EID2 alanine mutant peptide L205A] | ~30 % of WT affinity | – | –
6 | QRNPHRVDLAILTFTIALTAS [peptide #10, EID2 alanine mutant peptide D206A] | ~30 % of WT affinity | – | –
7 | QRNPHRVDLDALTFTIALTAS [peptide #11, EID2 alanine mutant peptide I207A] | ~30 % of WT affinity | – | –
8 | QRNPHRVDLDIATFTIALTAS [peptide #12, EID2 alanine mutant peptide L208A] | ~30 % of WT affinity | – | –
9 | QRNPHRVDLDILTATIALTAS [peptide #14, EID2 alanine mutant peptide F210A] | < 20 % of WT affinity | – | binding of necdin to peptide (pull-down, in words) [2]: significantly reduced
10 | QRNPHRVDLDILTFTAALTAS [peptide #16, EID2 alanine mutant peptide I212A] | < 20 % of WT affinity | – | binding of necdin to peptide (pull-down, in words) [2]: significantly reduced
11 | QRNPHRVDLDILTFTIAATAS [peptide #17, EID2 alanine mutant peptide L214A] | < 20 % of WT affinity | – | –
12 | QRNPHRVDLDILTFTIALAAS [peptide #18, EID2 alanine mutant peptide T215A] | ~30 % of WT affinity | – | –
13 | QRNPHRVDLDILTFTIALTAA [peptide #19, EID2 alanine mutant peptide S217A] | ~30 % of WT affinity | – | –
14 | B1 | – | binds | –
15 | Biotin-SGSGQRNPHRVALDILTFTIALTAS (source: synthetic peptide (Mimotopes)) [EID2 peptide #8 (D204A)] | – | binds | –
16 | Biotin-SGSGQRAPHRVDLDILTFTIALTAS (source: synthetic peptide (Mimotopes)) [EID2 peptide #3] | – | binds | –
17 | Biotin-SGSGQRNAHRVDLDILTFTIALTAS (source: synthetic peptide (Mimotopes)) [EID2 peptide #4] | – | binds | –
18 | Biotin-SGSGQRNPARVDLDILTFTIALTAS (source: synthetic peptide (Mimotopes)) [EID2 peptide #5] | – | binds | –
19 | Biotin-SGSGQRNPHRADLDILTFTIALTAS (source: synthetic peptide (Mimotopes)) [EID2 peptide #7] | – | binds | –
20 | Biotin-SGSGQRNPHRVDLDILAFTIALTAS (source: synthetic peptide (Mimotopes)) [EID2 peptide #13] | – | binds | –
21 | Biotin-SGSGQRNPHRVDLDILTFAIALTAS (source: synthetic peptide (Mimotopes)) [EID2 peptide #15] | – | binds | –

Source: paper PMC3335016, “Analysis of the Nse3/MAGE-Binding Domain of the Nse4/EID Family Proteins” (PLoS ONE, 2012)
